We go through one molecule from patent publication US20240423964A1, “METHODS AND COMPOSITIONS FOR IMPROVING NEUROMUSCULAR JUNCTION MORPHOLOGY AND FUNCTION” (The Board of Trustees of the Leland Stanford Junior …, priority 2021, published 2024).

Data set [1] deals with mice undergoing unilateral sciatic nerve crush. The data set is described as follows: Sciatic nerve crush: NMJ denervation in ipsilateral EDL muscles (immunofluorescence). The class given is in vivo, mouse. As to conditions: 14 dpi, daily intraperitoneal treatment, compared to vehicle-treated controls. As for the experimental part:
(§1) Nerve injury was induced as described below. Mice were treated with SW or vehicle as control intraperitoneally once daily for 14 days post-injury as described above.
The sciatic nerve crush surgery was adopted from the protocol described previously by Bauder and Ferguson (41). The crush surgery was performed as described above with the following modifications. After locating the sciatic nerve, the nerve was mobilized gently with sharp sticks for easy access with hemostatic forceps (Fine Science Tools, 13020-12). Next, the nerve was gently placed on the bottom jaw of the forceps and was crushed for 15 seconds at 3 clicks of the forceps (first location of the locking handle). The incision was closed using 7 mm autoclaved reflex clips (World Precision Instruments, 500344; Applier: 500345). Mice were monitored for recovery from anesthesia and then returned to their home cages. […]
Confocal images were acquired on a Marianas spinning disk confocal (SDC) microscopy with Intelligent Imaging Innovations software using a 20×/NA 0.75 or an oil immersion 40×/NA 0.9 objective to capture multiple focal planes at a step size of 1 μm. Images acquired using the 20× objective were analyzed to score denervation, axonal swelling, and fragmentation of AChRs. Images acquired with the oil immersion 40× objective were analyzed to quantity NMJ-associated endolysosomal vesicles stained with α-bungarotoxin-AF647. […]

The target of a further data set is 15-PGDH (Mus musculus, UniProt Q8VCC1). Particulars: in vivo; cited from earlier work.
15-PGDH, sequence (Q8VCC1 whole entry): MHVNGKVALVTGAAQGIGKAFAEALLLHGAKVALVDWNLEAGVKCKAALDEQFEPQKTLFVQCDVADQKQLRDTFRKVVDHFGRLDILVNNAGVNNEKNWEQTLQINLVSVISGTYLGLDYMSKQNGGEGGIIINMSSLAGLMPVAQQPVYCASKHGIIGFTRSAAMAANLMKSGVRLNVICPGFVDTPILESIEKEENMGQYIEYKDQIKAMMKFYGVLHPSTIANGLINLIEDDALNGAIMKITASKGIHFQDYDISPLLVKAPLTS
For data set [2], the system named is aged mice. The data set is described as follows: NMJ morphology in EDL muscles of aged mice (whole-mount staining, confocal microscopy). It is filed as in vivo, mouse. The protocol:
(§2) Mice were treated for 1 month once a day intraperitoneally with 5 mg/kg of SW033291 (SW) or vehicle (10% ethanol, 5% Cremophor EL, and 85% D5W (5% (wt/v) dextrose in water, Tables 3 and 4)) as previously described (2). Vehicle and SW treatments were performed in seven independent experiments for aging studies that included young and aged vehicle- and SW-treated groups. Mice were randomized based on their body weight into vehicle-treated control and SW-treated experimental groups prior to the start of injections. A full-body necropsy was performed on all mice at the experimental endpoint and mice that developed tumors were excluded from the study.
Extensor digitorum longus (EDL) and soleus muscles were dissected and fixed in 4% PFA in PBS for 30 minutes at room temperature. Muscles were washed in PBS extensively and stored in PBS with 0.01% sodium azide (Sigma. S2002) at 4 C until processed. For whole-mount staining, EDLs were separated using the distal tendon into 4 pieces to make thinner sheets of muscles for staining. The proximal and distal tendons of either soleus or EDL pieces were removed to allow for teasing thin bundles of muscle fibers using fine forceps under a stereomicroscope. Care was given in handling tissues to avoid touching the end plate band with forceps tips. Next, myofiber bundles were incubated in PBS-T (0.3% Triton X-100 in PBS) for 1 hour and were blocked in blocking solution (5% goat serum and 0.3% Triton X-100 in PBS) supplemented with 1:50 dilution of goat anti-mouse IgG (Jackson ImmunoResearch, 115-007-003) and IgM (Jackson ImmunoResearch, 115-007-020) for 1 hour at room temperature. Tissues were then incubated with a primary antibody mix against neurofilament and synaptic vesicle (2H3 and SV, DSHB) at 5 μg/ml for a minimum of 24 hours at 4 C with gentle shaking. Tissues were then rinsed with PBS-T and incubated with a secondary antibody mix (goat anti-mouse IgG1-Cy™3, Bungarotoxin-AF™647, and Hoechst 33342) diluted in blocking solution overnight at 4° C. with gentle shaking. Tissues were washed extensively with PBS and mounted in Fluoromount-G™ mounting medium (Southern Biotech, 0100-01) and left overnight to equilibrate prior to confocal microscopy.
Confocal images were acquired on a Marianas spinning disk confocal (SDC) microscopy with Intelligent Imaging Innovations software using a 20×/NA 0.75 or an oil immersion 40×/NA 0.9 objective to capture multiple focal planes at a step size of 1 μm. Images acquired using the 20× objective were analyzed to score denervation, axonal swelling, and fragmentation of AChRs. Images acquired with the oil immersion 40× objective were analyzed to quantity NMJ-associated endolysosomal vesicles stained with α-bungarotoxin-AF647. Maximum intensity projection images were created from confocal slices using NIH ImageJ software. Data acquisition and NMJ scoring were performed by two researchers blinded to treatment conditions.

Data set [3] has as its system aged mice. The data set is described as follows: Aged mice treated systemically with SW033291 for one month: muscle PGE2 levels, muscle mass and force. Particulars: systemic treatment for one month. The class given is in vivo, mouse. The source says: The prostaglandin E2 catabolizing enzyme, 15-hydroxyprostaglandin dehydrogenase (15-PGDH), is a pivotal regulator of muscle aging and that its inhibition leads to a marked increase in muscle mass and strength in aged mice^1. 15-PGDH is a nicotinamide adenine dinucleotide (NAD+) dependent enzyme that increases with aging in muscle and catabolizes PGE2. FIGS. 1A-1B show increased 15-PGDH activity along with PGE2 levels, and these are reduced in aged mouse muscle. […] Strikingly, overexpression of 15-PGDH in young mouse muscles leads to loss of muscle mass and strength after just one month^1. […]
Plantar flexion peak isometric torque (N·mm) was measured in mice as described previously (2, 42, 43). […] Data were analyzed using Aurora Scientific Dynamic Muscle Analysis Software Suite. Force was measured longitudinally in mice undergoing unilateral sciatic nerve crush injury on days 3, 7, and 14 post-injury. Peak tetanic force generated by contralateral uninjured legs was measured in all experimental mice at all time points.
Prostaglandins, PGE2, PGD2, and PGF2a, and PGE2 metabolites, 15-keto PGE2 and 13,14-dihydro-15-keto PGE2 (PGEM), were measured as described previously (2). Briefly, tissues were snap frozen in liquid nitrogen upon dissection and were kept for no more than 2 weeks in −80° C. freezer before processing for prostaglandin quantification using LC-MS/MS. […]

Data set [4] concerns aged mice. The data set is described as follows: Electron microscopy of motor neuron-associated mitochondria in EDL axons of aged mice. It is filed as in vivo, mouse. As to conditions: one month of treatment, listed as SW. The protocol:
as §2
Extensor digitorum longus (EDL) muscles were dissected and pinned by proximal and distal tendons to the bottom of a petri-dish coated with silicone rubber. Tissues fixed in 2% Glutaraldehyde (Electron Microscopy Sciences, 16000) and 4% paraformaldehyde (Electron Microscopy Sciences, 15700) in 0.1M sodium cacodylate (Electron Microscopy Sciences, 12300) pH 7.4 for 24 hours. Tissues were then transferred from petri-dishes to microcentrifuge tubes with 1% Osmium tetroxide (Electron Microscopy Sciences, 19100) and were kept at room temperature for 1 hour with gentle rotation. […] Images were quantified by an individual blinded to experimental conditions in ImageJ.

Data set [5] concerns mice undergoing unilateral sciatic nerve crush. The data set is described as follows: Sciatic nerve crush: body weight and gastrocnemius/soleus muscle weight. It is filed as in vivo, mouse. As for the experimental part:
as §1
(§3) The sciatic nerve crush surgery was adopted from the protocol described previously by Bauder and Ferguson (41). The crush surgery was performed as described above with the following modifications. After locating the sciatic nerve, the nerve was mobilized gently with sharp sticks for easy access with hemostatic forceps (Fine Science Tools, 13020-12). Next, the nerve was gently placed on the bottom jaw of the forceps and was crushed for 15 seconds at 3 clicks of the forceps (first location of the locking handle). The incision was closed using 7 mm autoclaved reflex clips (World Precision Instruments, 500344; Applier: 500345). Mice were monitored for recovery from anesthesia and then returned to their home cages.

For data set [6], the system named is aged mice. The data set is described as follows: Motor neuron apoptosis: cleaved caspase-3 in ChAT+ neurons of the lumbar spinal cord of aged mice. It is filed as in vivo, mouse. Particulars: ChAT+ neurons in ventral horn of lumbar spinal cord. As for the experimental part:
as §2
Spinal cords were harvested as previously described using hydraulic extrusion of the entire intact spinal cord. Briefly, mice were euthanized with carbon dioxide and decapitated using scissors caudally to the brain stem. The spinal columns were severed just caudal to the sacral spinal cord. A blunt 25-gauge syringe containing ice-cold PBS was inserted into the caudal end of the spinal cord to hydraulicly extrude the entire cord in a petri0dish with ice-cold PBS. The lumbar region was identified under a stereomicroscope, dissected with a sharp blade, and fixed overnight at 4 C in 4% PFA in phosphate buffer. Fixed lumbar spinal cords were embedded in O.C.T. and were frozen in liquid-nitrogen-cooled isopentane. […]

The subject of data set [7] is mice undergoing unilateral sciatic nerve crush. The data set is described as follows: Sciatic nerve crush: plantar flexion tetanic force by nerve stimulation. The class given is in vivo, mouse. As for the experimental part: as §1, §3
Plantar flexion peak isometric torque (N·mm) was measured in mice as described previously (2, 42, 43). Briefly, mice were anesthetized with 3% isoflurane mixed with oxygen and legs were shaved from ankle to hip to allow for reproducible access to the tibial nerve. The foot was taped to a footplate attached to a servomotor (Aurora Scientific, 300C-LR) and the knee joint was secured to a fixed steel post. Contractions were elicited by percutaneous electrical stimulation of the tibial nerve by inserting two Pt—Ir electrode needles (Aurora Scientific) posterior to the knee joint. The peak isometric torque was achieved by injecting 0.4 mA current to the tibial nerve at a frequency of 150 Hz and 0.1 ms square wave pulse. Three tetanic measurements were performed on each muscle, with 1 minute recovery between each measurement, and chose the highest value. Force measurement acquisition was blinded and the researcher performing the force measurements was unaware of treatment conditions. Data were analyzed using Aurora Scientific Dynamic Muscle Analysis Software Suite. Force was measured longitudinally in mice undergoing unilateral sciatic nerve crush injury on days 3, 7, and 14 post-injury. Peak tetanic force generated by contralateral uninjured legs was measured in all experimental mice at all time points.

The mark [8] stands for this setting: aged mice, one month of intraperitoneal administration.
[9] abbreviates: geriatric mice (>26 months), one month once daily i.p., EDL.

Molecules are shown by their SMILES. “Also recorded” adds a separate entry of the source.

Consider `CCCC[S+]([O-])c1sc2nc(-c3cccs3)cc(-c3ccccc3)c2c1N` (centres unmarked) [SW033291, 2-(butylsulfinyl)-4-phenyl-6-(thiophen-2-yl)thieno[2,3-b]pyridin-3-amine], for which the “denervation rates in EDLs ipsilateral to the nerve crush” value in data set [1] is given as “significantly reduced”. In addition, at 15-PGDH, the “catabolic regulators of muscle atrophy such as atrogenes, ubiquitin ligases MuRF1 (Trim63) and Fbxo32, and TGF-beta signaling” value is given as “reduction”. Further, in the data set with aged mice [2] (setting [8]), the “morphology of the AChRs” value is “improves, enhances, and/or rejuvenates the intact morphology of the AChRs” and the “number of AChR rich endo/lysosomal vesicles” value is recorded as “striking reduction”. For the same molecule, in the data set on aged mice [2] (aged mice, one month of intraperitoneal administration, listed as SW), the “number of AChR rich endo/lysosomal vesicles” value is “reduces”. Also, in the data set on aged mice [2] (setting [9]), the “aged NMJ morphology” value was “improved, enhanced, and/or rejuvenated to branched and pretzel-like structures found in young EDLs”; the “incidence of AChR fragmentation” value is given as “significantly reduced”; the “incidence of motor neuron axonal swelling” value is “significantly reduced”. Further, the “rate of denervation in aged EDLs” value in the data set on aged mice [2] (geriatric mice (>26 months), one month once daily i.p., mean±S.E.M.) was determined as 12.4±2.9. Further, in the data set on aged mice [3], the “increase in muscle mass and force” value is 15-20%; the “muscle PGE2 levels” value was “to the physiological levels measured in young mice”. The “mitochondrial morphology in motor neurons (distal axons / heavily myelinated axons of EDL)” value in the data set on aged mice [4] is given as “improvement, enhancement, and/or rejuvenation of mitochondrial morphology; also recorded: improved, enhanced, and/or rejuvenated to compact circular mitochondria morphology resembling that seen in young”. In addition, in data set [5] (14 dpi, gastrocnemius and soleus), the “muscle mass in injured legs” value is given as “significant increase”. Also, the “muscle weight of the contralateral control legs, difference between vehicle and SW treatment” value in data set [5] (contralateral control legs, 14 days post nerve crush) is on record as “No differences”. Besides, in data set [5] (nerve crush model), the “animals body weight, difference between vehicle and SW treatment” value is reported as “No differences”. Moreover, the “activated caspase-3 in aged lumbar motor neurons (apoptosis)” value in the data set with aged mice [6] is recorded as “lower levels”. In data set [7] (3 dpi until 7 dpi), the “tetanic plantar flexor force in the injured leg, difference between vehicle and SW” value was “no differences between the experimental groups”. Besides, the “plantar flexion force of the contralateral (uninjured) legs, difference between vehicle and SW” value in data set [7] (contralateral control legs, listed as SW) was “no significant differences”. In addition, the “increase in specific force (force normalized to gastrocnemius and soleus weight)” value in data set [7] (mean±S.D., compared to vehicle-treated control mice, 14 days post nerve crush) was 52±10%. In addition, in data set [7] (mean±S.D., daily intraperitoneal treatment after nerve crush), the “increase in plantar flexion force generation in injured legs” value stood at 69±8%.
